Experiment [1] has as its system C. difficile. Conditions: molecules in current use or in clinical trials (phase III); cited from earlier work.
Experiment [2] relates to C. difficile. Conditions: cited from earlier work.
In another experiment the test system is Staphylococcus aureus H3. Briefly: MIC / antibiotic susceptibility. Also: key: R: strain resistant to antibiotic concerned; S: strain sensitive to antibiotic concerned; L strain with intermediate resistance to antibiotic concerned. Format: cell-based.
The test system of a further experiment is Staphylococcus aureus H7. Briefly: MIC / antibiotic susceptibility. Also: key: R: strain resistant to antibiotic concerned; S: strain sensitive to antibiotic concerned; L strain with intermediate resistance to antibiotic concerned. Format: cell-based.
In a further experiment the test system is Staphylococcus aureus H4. Briefly: MIC / antibiotic susceptibility. Also: key: R: strain resistant to antibiotic concerned; S: strain sensitive to antibiotic concerned; L strain with intermediate resistance to antibiotic concerned. Format: cell-based.
Experiment [3] relates to Staphylococcus aureus H16. Type of experiment: cell-based.
The subject of experiment [4] is Staphylococcus aureus H18. Nature of the experiment: MIC / antibiotic susceptibility. Format: cell-based.
The subject of another experiment is Staphylococcus aureus H9. Nature of the experiment: MIC / antibiotic susceptibility. Format: cell-based.
The test system of another experiment is Staphylococcus aureus H1. Briefly: MIC / antibiotic susceptibility. Format: cell-based.

Values after ≈ are worked out from the molar mass of the structure shown.
For Susceptibility of strain to antibiotic in this document: key: R: strain resistant to antibiotic concerned; S: strain sensitive to antibiotic concerned; L strain with intermediate resistance to antibiotic concerned.

Consider `CCc1c(Cl)c(O)c(Cl)c(O)c1C(=O)O[C@H]1[C@H](O)[C@H](OC)[C@H](OC/C2=C\C=C\C[C@H](O)/C(C)=C/[C@H](CC)[C@@H](O[C@@H]3OC(C)(C)[C@@H](OC(=O)C(C)C)[C@H](O)[C@@H]3O)/C(C)=C/C(C)=C/C[C@@H]([C@@H](C)O)OC2=O)O[C@@H]1C` [Lipiarmycin], for which, in the experiment with C. difficile [1], the “MIC on C. difficile” value was 0.06 to 2 µg/mL.
`Cc1ncc([N+](=O)[O-])n1CCO` [Metronidazole]: the “MIC on C. difficile” value with C. difficile [1] was 1 µg/mL (≈ 5.84 µM). In addition, in the experiment with C. difficile [2] (first intention treatment of C. difficile infection), the “Patients for whom the drug is inactive” value is 25%. For the same molecule, in the experiment on C. difficile [2] (treatment of C. difficile infection), the Relapses is recorded as 25 % of cases.
As for `CC(=O)Oc1ccccc1C(=O)Nc1ncc([N+](=O)[O-])s1` [Nitazoxanide], the “MIC on C. difficile” value in the experiment with C. difficile [1] is 0.1 µg/mL (≈ 0.325 µM).
As to `CO[C@H]1/C=C/O[C@@]2(C)Oc3c(C)c(O)c4c(O)c(c(/C=N/N5CCN(C)CC5)c(O)c4c3C2=O)NC(=O)/C(C)=C\C=C\[C@H](C)[C@H](O)[C@@H](C)[C@@H](O)[C@@H](C)[C@H](OC(C)=O)[C@@H]1C` [Rifampicin], the “Susceptibility of strain to antibiotic” value is “S” in the experiment with Staphylococcus aureus H3; “S” with Staphylococcus aureus H7; “S” in the experiment on Staphylococcus aureus H4; “R” in experiment [3]; “S” in [4]; “S” with Staphylococcus aureus H9. Besides, the “Susceptibility of strain to antibiotic” value with Staphylococcus aureus H1 is given as “S”.
Take `CO[C@H]1/C=C/O[C@@]2(C)Oc3c(C)c(O)c4c(O)c(c5c(nc6cc(C)ccn65)c4c3C2=O)NC(=O)/C(C)=C\C=C\[C@H](C)[C@H](O)[C@@H](C)[C@@H](O)[C@@H](C)[C@H](OC(C)=O)[C@@H]1C` [Rifaximin]: the “MIC on C. difficile” value with C. difficile [1] was 0.08 to 0.2 µg/mL.
Turning to `NC[C@H]1O[C@H](O[C@H]2[C@H](O)[C@@H](O[C@H]3O[C@H](CO)[C@@H](O)[C@H](N)[C@H]3O)[C@H](N)C[C@@H]2N)[C@H](N)C[C@@H]1O` [Tobramycin], the “Susceptibility of strain to antibiotic” value in the experiment with Staphylococcus aureus H3 is given as “S”; in the experiment with Staphylococcus aureus H7 it was “S”; in the experiment on Staphylococcus aureus H4, “R”; in experiment [3], “R”; in experiment [4] it was “R”; in the experiment with Staphylococcus aureus H9 it was “S”. Also, in the experiment on Staphylococcus aureus H1, the “Susceptibility of strain to antibiotic” value is recorded as “S”.
As for `CN[C@H](CC(C)C)C(=O)N[C@H]1C(=O)N[C@@H](CC(N)=O)C(=O)N[C@H]2C(=O)N[C@H]3C(=O)N[C@H](C(=O)N[C@H](C(=O)O)c4cc(O)cc(O)c4-c4cc3ccc4O)[C@H](O)c3ccc(c(Cl)c3)Oc3cc2cc(c3O[C@@H]2O[C@H](CO)[C@@H](O)[C@H](O)[C@H]2O[C@H]2C[C@](C)(N)[C@H](O)[C@H](C)O2)Oc2ccc(cc2Cl)[C@H]1O` [Vancomycin], the “MIC on C. difficile” value in the experiment with C. difficile [1] is approximately 1 µg/mL (≈ 0.69 µM). Besides, the “Susceptibility of strain to antibiotic” value is “S” with Staphylococcus aureus H3; “S” in the experiment on Staphylococcus aureus H7; “S” with Staphylococcus aureus H4; “S” in [3]; “R” in experiment [4]; “S” in the experiment on Staphylococcus aureus H9. In addition, the “Susceptibility of strain to antibiotic” value in the experiment on Staphylococcus aureus H1 is recorded as “S”.
For Co-trimoxazole, the “Susceptibility of strain to antibiotic” value (with Staphylococcus aureus H3; with Staphylococcus aureus H7; in the experiment with Staphylococcus aureus H4; in [3]; in experiment [4]; in the experiment on Staphylococcus aureus H9) was “S” throughout. Also, the “Susceptibility of strain to antibiotic” value with Staphylococcus aureus H1 is given as “S”.
With Gentamicin, the “Susceptibility of strain to antibiotic” value in the experiment on Staphylococcus aureus H3 was “S”; in the experiment on Staphylococcus aureus H7, “S”; in the experiment with Staphylococcus aureus H4, “S”; in experiment [3] it was “R”; in experiment [4], “S”; in the experiment on Staphylococcus aureus H9, “S”. The “Susceptibility of strain to antibiotic” value in the experiment on Staphylococcus aureus H1 was “S”.

Values taken from patent US20100227935A1, “CLASS OF TERPENE-DERIVED COMPOUNDS HAVING AN ANTIBIOTIC ACTIVITY, COMPOSITIONS CONTAINING THE SAME AND USES THEREOF” (Centre National De La Recherche Scientifique, priority 2006, published 2010).
